From US10247722B2, “Use of compounds inhibiting apelin / APJ / GP130 signaling for treating cancer” (Centre National de la Recherche Scientifique (CNRS), priority 2014, dated 2019)
Entries after “also recorded” stand apart in the source; their conditions may differ. Positions of bridges follow the written chain, without caps; N, C: chain ends. No end group written: not given here.

Columns and labels:
[1] = tested on: patient-derived GSCs; assay: Secondary neurosphere/tumoursphere formation, Sox2/Nestin expression and trypan blue viability of GSCs; assay type: cell-based, human; conditions: mitogen-free medium plus APJ agonist; ML233 1 mmol·l^1, 4 days (FIG. 13)
[2] = tested on: Akt/mTor pathway; assay: Western blot of Akt/mTor pathway activation (pAkt, pS6) in GSCs; assay type: cell-based, human
Description: FIG. 4. […] Scale bar: 40 μm. Data represent mean+sem on n=3 experiments.
(§1) FIG. 9. […] GSCs were pre-treated with APJ antagonist (MM54, 2 μmol·l^1) 45 min prior EC-CM or Apelin (Apin, 1 μmol·l^−1, 7 min) and protein lysates were analysed by western-blots with the indicated antibodies. Controls include GSC grown in complete (NS) and mitogen-free media (MF). b. STAT3 reporter activity was measured in mock, APJ, Gp130 and APJ+Gp130-transfected HEK-293T and exposed for 6 h to MF and Apin, together with either DMSO or MM54. c. GSCs were exposed to NS, EC-CM and Apin in the presence of DMSO or MM54. Tumoursphere formation per field of view (TS/FOV) was also quantified. d. Nude mice were xenografted with GSCs and bi-weekly intraperitoneal administration of vehicle (PBS) or APJ antagonist (MM54, 20 μmol·l^−1) started at week 4 (arrow). Tumour volume was measured weekly for 7 weeks. e. Frozen sections from GSC-xenografted tumours treated either with vehicle or MM54 were stained for blood vessels (PECAM), together with either Ki67 (proliferation marker or Nestin and nuclei. Percentage of dead cells was estimated by TUNEL. Quantification of both staining is shown. Data represent mean+sem on n=3 experiments. Two-way ANOVA: *P<0.05; **P<0.01.

[3] = tested on: patient-derived GSCs; assay: Secondary neurosphere/tumoursphere formation, Sox2/Nestin expression and trypan blue viability of GSCs; assay type: cell-based, human
Description: as §1
FIG. 11. […] Apelin secretion was measured by EIA in positive templates (C+), mitogen-free media (MF), human brain endothelial cell (EC) and GSC conditioned media (CM). RT-PCR for Apelin and Actin is also shown for EC and GSC. b. Confocal analysis of Nestin (green), Sox2 (red) and nuclei (DAPI, blue) in GSC grown in complete media (NS), in MF, in EC-CM or MF containing only recombinant Apelin (Apin, 1 μmol·l^−1). Scale bar: 40 um. c-d. GSCs #1-16 were cultured in MF or Apin. Quantification of tumourspheres per field of view (TS/FOV) (c) and trypan blue exclusion quantification (Viable cells %) (d) was performed. e. EC received non-silencing RNA (siC) or Apin targeting siRNA (siApin). Apin extinction was checked by RT-PCR and enzyme immunoassay. f. GSCs were cultured with siC and siApin EC-CM, as prepared in (e). Confocal analysis was performed on Nestin (green), Sox2 (red) and DAPI (blue) co-staining. Scale bar: 40 μm. g-h. siC or siApin EC-CM treated GSCs were processed as in (c, d). i-k. GSCs were cultured with NS, MF, siC EC-CM and siApinEC-CM alone or plus Apin. Phase pictures are shown (i) Scale bar: 25 μm, TS/FOV and viable cells were also analysed (j, k). Data represent mean+sem on n=3 experiments. T-test: *P<0.05; **P<0.01; ***P<0.001.
GSCs were dissociated by up-and-down pipetting and cultured in a 48-well plate format. […] NS counts were blindly performed on five random fields of view (fov) and the mean of neurosphere/fov was calculated from 3 independent experiments. Statistical analyses were performed using 2-way Student's test (Excel Microsoft Office).

[4] = tested on: STAT3; conditions: recombinant Apelin 1 μM
Description: A. Western-blot analysis for pY-STAT3, pS-STAT3 and Total STAT3 in GSC#1 treated with complete media (NS34), deprived medium (SF), endothelial cell-conditioned media (EC-CM), or SF supplemented with Apelin (1 μM), for the indicated times. B. GSC#1 received non-silencing siRNA (sic) or siRNA targeting APJ. GSC#1 were treated with EC-CM and analyzed by western-blots using the indicated antibodies (upper panel). Alternatively, GSC#1 received EC-CM prepared from non-silencing shRNA (shC) or shRNA targeting Apelin (lower panel). […] GSC#1 received non-silencing siRNA (siC) or siRNA targeting GP130, were stimulated with EC-CM three days later, and protein lysates were analyzed by western-blots, using the indicated antibodies. D. GSC#1 were pre-treated with GP130-blocking antibody 45 min prior EC-CM or Apelin stimulation and protein lysates were analyzed by western-blots. E. Neurosphere assay was conducted in GSC#1 treated with siRNA as in (C) or with GP130-blocking antibody as in (D).
Proteins were collected in TNT buffer (10 mM Tris-HCl pH 7.5, 150 mM NaCl, 1% Triton X100, 2 mM EDTA) plus protease inhibitors (Sigma), 200 mM NaF and 0.1 mM Na3VO4. Equal amounts of proteins (microBCA kit, Pierce) were separated with 4-12% Nupage gels (Invitrogen) and transferred onto PVDF membranes (Thermo Fisher Scientific). […]

[5] = tested on: STAT3; assay: STAT3 luciferase reporter assay in HEK-293T co-expressing APJ and Gp130; assay type: cell-based, human; conditions: HEK-293T co-expressing APJ and Gp130, Apelin 6 h
Description: FIG. 9. Pharmacological inhibition of APJ impairs tumour growth. a. GSCs were pre-treated with APJ antagonist (MM54, 2 μmol·l^1) 45 min prior EC-CM or Apelin (Apin, 1 μmol·l^−1, 7 min) and protein lysates were analysed by western-blots with the indicated antibodies. Controls include GSC grown in complete (NS) and mitogen-free media (MF). b. STAT3 reporter activity was measured in mock, APJ, Gp130 and APJ+Gp130-transfected HEK-293T and exposed for 6 h to MF and Apin, together with either DMSO or MM54. c. GSCs were exposed to NS, EC-CM and Apin in the presence of DMSO or MM54. Tumoursphere formation per field of view (TS/FOV) was also quantified. d. […] Tumour volume was measured weekly for 7 weeks. e. Frozen sections from GSC-xenografted tumours treated either with vehicle or MM54 were stained for blood vessels (PECAM), together with either Ki67 (proliferation marker or Nestin and nuclei. Percentage of dead cells was estimated by TUNEL. Quantification of both staining is shown. Data represent mean+sem on n=3 experiments. Two-way ANOVA: *P<0.05; **P<0.01.
HEK-293T cells were co-transfected with HA-APJ, GP130, STAT3 Luciferase Reporter Vector (Affymetrix) and Renilla (Promega). […] Then, cells were lysed and STAT3 luciferase activity was measured using the Dual-Luciferase Reporter Assay (Promega). […]

[6] = tested on: human GSCs implanted into immunocompromised mouse flanks; assay: Subcutaneous GSC xenograft in nude mice, tumour growth and histology; assay type: in vivo
Description: FIG. 9. Pharmacological inhibition of APJ impairs tumour growth. a. GSCs were pre-treated with APJ antagonist (MM54, 2 μmol·l^1) 45 min prior EC-CM or Apelin (Apin, 1 μmol·l^−1, 7 min) and protein lysates were analysed by western-blots with the indicated antibodies. Controls include GSC grown in complete (NS) and mitogen-free media (MF). b. STAT3 reporter activity was measured in mock, APJ, Gp130 and APJ+Gp130-transfected HEK-293T and exposed for 6 h to MF and Apin, together with either DMSO or MM54. c. GSCs were exposed to NS, EC-CM and Apin in the presence of DMSO or MM54. Tumoursphere formation per field of view (TS/FOV) was also quantified. d. Nude mice were xenografted with GSCs and bi-weekly intraperitoneal administration of vehicle (PBS) or APJ antagonist (MM54, 20 μmol·l^−1) started at week 4 (arrow). Tumour volume was measured weekly for 7 weeks. e. Frozen sections from GSC-xenografted tumours treated either with vehicle or MM54 were stained for blood vessels (PECAM), together with either Ki67 (proliferation marker or Nestin and nuclei. Percentage of dead cells was estimated by TUNEL. Quantification of both staining is shown. Data represent mean+sem on n=3 experiments. Two-way ANOVA: *P<0.05; **P<0.01.
All animal studies were carried out according to French Ministry approved protocols (agreement number #00754.02), in compliance with the European Convention for the Protection of Vertebrate Animals used for Experimental and other Scientific Purposes (ETS 123). Six weeks old females BALB/c nude mice (Janvier) were subcutaneously injected with 1*10^6 cells in 100 μl 1:1 PBS and growth factors-free matrigel (Corning). For tumour initiation (FIG. 9), mice were examined weekly in the search for tumours and sacrificed 7 weeks after implantation. For pharmacological studies (FIG. 6), mice were treated twice per week with MNI54 or vehicle (DMSO) diluted in PBS (100 μl) (intraperitoneal injection for 7 weeks), once tumours were detected (4 weeks post-implantation).
Upon sacrifice, tumours were extracted, embedded in OCT (Tissue Tek) in biomoulds, frozen by immersion in dry ice-chilled isopentane for 1 min, and stored at −80° C. for further analysis.
For immunostaining, embedded OCT-tumours were cut in 7 μm sections using a CM350S Leica cryostat (Histology platform, Institut Cochin, Paris). […]
A minimum of 3 tumour sections per condition was used, with at least 5 different fields of view (fov) each. For blood vessel surface analysis, PECAM pixel intensity was calculated in each fov and an average+sem of the total fov was represented. Cell proliferation was assessed through the percentage of Ki67-positive cells normalized to the total cell number of cells in DAPI. Nestin positive cells were counted per fov.

[7] = tested on: mice intracranially implanted with GSCs; assay: Orthotopic (intracranial) GSC #9 implantation in nude mice; assay type: in vivo
Description: FIG. 15. Anti-tumor effect of APJ inhibition. Nude mice were implanted with GSC #9 orthotopically (10^5 cells) and treated tri-weekly with intraperitoneal injection of vehicle (PBS) or APJ antagonist (MM54, 20 μmol·l^−, 4 mg/kg) starting at day 16 (arrow). Appearance of neurological symptoms (a) and weight at sacrifice (b) were monitored. Kaplan-Meier survival curve of GSC #9-bearing mice is shown (c). Data represent mean+sem of n=3 experiments. Two-way ANOVA: *P<0.05; **P<0.01.

[8] = Toxicity observation in MM54-treated mice (body weight, heart/body weight ratio, heart anatomy); assay type: in vivo; conditions: ectopic tumour-bearing mice, bi-weekly over 7 weeks; sham-operated female nude mice
Description: FIG. 16. […] Gain weight was measured in ectopic tumour bearing mice that received bi-weekly treatment over 7 weeks. b-d. Female nude mice underwent intracranial implantation of PBS (sham surgery) and then received DMSO and MM54 17 days after PBS implantation. Body weight was monitored long the experiment (a). Heart/body weight ratios were calculated at the day of sacrifice (c). General anatomy of hearts from DMSO and MM54-treated mice using the Masson Trichrome staining (d).

[9] = intracranial GSC #9, intraperitoneal MM54 thrice a week (4 mg/kg) from day 16

Q: For CC1=CC(=O)C(C2CCCCC2)=C/C1=N\OS(=O)(=O)c1ccccc1 [ML233], which GSC survival [1] is on record?
A: The GSC survival was “promote GSC survival; also recorded: promotes GSC survival through APJ/GP130”.

Q: Which “Activation of the Akt/mTor pathway in GSCs (Akt, S6 phosphorylation)” value ([2]; recombinant Apelin 1 μM, no other exogenous mitogen) does the source give for Apelin here?
A: The value was “able to activate this pathway in a similar extend than EC-CM; also recorded: triggered the activation of the mTor signalling cascade”.

Q: What about the “EC-CM-sustained self-renewal and viability of GSCs” value ([3]; exogenous Apelin added into Apelin-depleted endothelial cell-derived media) of the same molecule?
A: The value was “restored”.

Q: What about the “GSC self-renewal (secondary neurosphere formation and Sox2/Nestin expression)” value ([3]; recombinant Apelin 1 μM in mitogen-free media, panel of 16 patient-derived GSCs) of the same molecule?
A: The value was “sufficient to support self-renewal; also recorded: maintained”.

Q: What about the “Mitogen deprivation-induced cell death” value ([3]; recombinant Apelin in mitogen-free media, trypan blue exclusion) of the same molecule?
A: Its value is “hindered”.

Q: What about the “Activation of STAT3 signaling in GSCs” value [4] of the same molecule?
A: Its value is “able to activate this signaling pathway”.

Q: And the GSC survival [1]?
A: The GSC survival was “has an effect on GSCs survival”.

Q: For Apelin 13, which GSC survival [1] is on record?
A: Its GSC survival is “promote GSC survival”.

Q: With “Apelin 36: 36 amino acid peptide corresponding to the sequence 42-77 of the Apelin proprotein; APJ agonist (LVQPRGSRNGPGPWQGGRRKFRRQRPRLSHKGPMPF; homo sapiens; Apelin 36 aa - homo sapiens)” as the molecule, how does the GSC survival [1] read?
A: The GSC survival was “promote GSC survival”.

Q: With “cyclo(1-6)CRPRLC-KH-cyclo(9-14)CRPRLC (CRPRLCKHCRPRLC; bridge 1-6, 9-14) [MM54, APJ antagonist (Macaluso N J et al., 2011), supplied by Dr. Robert Glenn]” as the molecule, how does the “Inhibition of EC-CM- and Apelin-induced Akt/mTor activation in GSCs” value ([2]; pre-treatment 45 min prior EC-CM or Apelin (1 μmol·l^−1, 7 min), MM54 2 μmol·l^−1) read?
A: Its value is “blocks; also recorded: alleviated”.

Q: What about the “Inhibition of Apelin-mediated STAT3 activation (STAT3 reporter activity)” value [5] of the same molecule?
A: The value was “reduced”.

Q: And the “Inhibition of Apelin-mediated STAT3 activation (STAT3 reporter activity)” value ([5]; listed as pharmacological antagonist of APJ)?
A: Its value is “blocked”.

Q: What about the “Neurosphere number and size, with Sox2/Nestin” value ([3]; GSCs cultured with EC-CM) of the same molecule?
A: The value was “dramatically decreased”.

Q: What about the “Endothelial Apelin-dependent GSC self-renewal and survival (tumoursphere formation)” value ([3]; GSCs exposed to EC-CM or Apelin in presence of DMSO or MM54) of the same molecule?
A: Its value is “blocks; also recorded: impaired”.

Q: What about the “GSC number in residual tumours, as scored with Nestin” value ([6]; bi-weekly intraperitoneal MM54) of the same molecule?
A: Its value is “decreased”.

Q: And the “Overall cell proliferation (Ki67) and viability (TUNEL) in residual tumours” value ([6]; bi-weekly intraperitoneal MM54)?
A: Its value is “decreased”.

Q: What about the “Tumour vascularisation (PECAM)” value ([6]; bi-weekly intraperitoneal MM54) of the same molecule?
A: The value was “reduction”.

Q: And the “Tumour growth (tumour volume)” value ([6]; bi-weekly intraperitoneal MM54 (20 μmol·l^−1) from week 4, 7 weeks)?
A: The value was “capable of in vivo inhibiting tumor growth once initiated; also recorded: restrain tumor growth and expansion; also recorded: strongly hindered”.

Q: What about the Neurological symptoms ([7]; intracranial GSC #9, intraperitoneal MM54 thrice a week (20 μmol·l^−, 4 mg/kg) from day 16) of the same molecule?
A: Its Neurological symptoms is “significantly abolish”.

Q: What about the “Loss weight associated with tumour progression” value [7, 9] of the same molecule?
A: Its value is “rescue”.

Q: What about the “Overall survival of tumour-bearing mice (Kaplan-Meier)” value [7, 9] of the same molecule?
A: Its value is “dramatically increased”.

Q: And the Tumour size ([7]; intracranial GSCs, intraperitoneal MM54 thrice a week)?
A: The Tumour size was “reduced”.

Q: And the “Toxic effects of treatment” value [8]?
A: The value was “does not exert any obvious toxic effects”.
